The source of these data is patent US4649204A, “Dialkanolamine derivatives” (McNeilab, Inc., priority 1985, dated 1987).

SMILES strings stand for the structures. Structures can show the parent of a compound that is named as a salt. Where two headings read alike, the source gives them in different places.

The test system of the test is decrease in exploratory activity and ptosis induced with tetrabenazine in mice. Put plainly: tetrabenazine (TBZ) antagonism test: antagonism of the decrease in exploratory activity and ptosis induced by tetrabenazine in mice (antidepressant activity). Format: in vivo. The conditions noted are these: test compound 30 minutes prior to 32 mg/kg i.p. tetrabenazine; for ED50: Mus musculus, ip. As for the experimental part:
The antidepressant activity was determined using the "classical" tetrabenazine (TBZ) antagonism test. […] J. H. Nodine and J. H. Moyer (Lea and Febiger, Philadelphia) p.
Thirty minutes post tetrabenazine, the mice are tested for the presence of normal exploratory activity and ptosis. […] Three to five dosage levels, 10 mice per dosage level, are used per compound.

Where [1] appears, read: first figure of EA/Pt, read-out: TBZ ED50, EA (exploratory activity).
Setting [2] is: second figure of EA/Pt, read-out: TBZ ED50, Pt (ptosis).

Take `OCCN(CCO)CC(c1ccccc1)c1ccccc1` [Example I, 2,2'-[(2,2-Diphenylethyl)imino]bis[ethanol]Hydrochloride]: the ED50 under setting [1] was 15 mg/kg and the median effective dose (ED50) under setting [2] is 1.5 mg/kg.
The like results for `CCC(C(c1ccccc1)c1ccccc1)N(CCO)CCO` (stereo not drawn) [Example IV, 2,2'-[(1,1-Diphenyl-2-butyl)imino]bis[ethanol]Fumarate] were, in that order, 23 mg/kg and 19 mg/kg.
The like results for `CC(C(c1ccccc1)c1ccccc1)N(CCO)CCO` (stereo not drawn) [Example V, 2,2'-[(1,1-Diphenyl-2-propyl)imino]bis[ethanol]Fumarate] were, in that order, 13 mg/kg and 8 mg/kg.
As to `OCCN(CCO)CC(c1ccccc1)c1cccs1` (stereo not drawn) [Example VI, 2,2'-{[2-Phenyl]-2-[(2-thienyl)ethyl]imino}bis{ethanol}.HI], the ED50 is, setting by setting: under setting [1], roughly 60 mg/kg; under setting [2], roughly 60 mg/kg.
`OCCN(CCO)CC(c1ccc(Cl)cc1)c1ccc(Cl)cc1` [Example VII, 2,2'-{[2,2-Bis(4-chlorophenyl)ethyl]imino}bis{ethanol}]: the median effective dose (ED50) runs as follows: under setting [1], roughly 60 mg/kg; under setting [2], roughly 60 mg/kg.
On to `OCCN(CCO)CC(F)(c1ccccc1)c1ccccc1` [Example VIII, 2,2'-[(2-Fluoro-2,2-diphenylethyl)imino]-bis[ethanol]Dihexamate], for which the ED50 was found to be 40 mg/kg under setting [1] and 12 mg/kg under setting [2].
As for `CC(CN(CCO)CCO)(c1ccccc1)c1ccccc1` [II, 2,2'-[(2,2-Diphenylpropyl)imino]bis[ethanol]Hydrochloride], the ED50 stood at 28 mg/kg under setting [1] and 35 mg/kg under setting [2].
For the compound `CC(O)CN(CC(C)O)CC(c1ccccc1)c1ccccc1.Cl` (stereo not drawn) [III, 1,1'-[(2,2-Diphenylethyl)imino]bis[2-propanol].HCl], the “TBZ ED50, EA (exploratory activity)” value (i.p., first figure of EA/Pt) is recorded as 11 mg/kg. Further, the “TBZ ED50, Pt (ptosis)” value (i.p., second figure of EA/Pt) amounted to 6 mg/kg.
Turning to `O[C@H]1CN(CC(c2ccccc2)c2ccccc2)C[C@@H]1O` [IX, 1-(2,2-Diphenylethyl)pyrrolidine-3,4-diol Hemifumarate], the 50% effective dose (ED50) is 35 mg/kg under setting [1] and 6 mg/kg under setting [2].

Broadly, the ED50 is the dose that gives a 50% effect, or the effect in half of the subjects.
